Measurements: US20240252581A1, “COMPOSITIONS AND METHODS FOR TREATING RESPIRATORY DISTRESS” (S.I.S. SHULOV INNOVATIVE SCIENCE LTD., priority 2021, published 2024)
Square brackets hold non-standard residues; d marks the D form. * marks the point of attachment. pGlu = O=C1CC[C@@H](C(=O)O)N1; Octanoyl = CCCCCCCC(=O)*

Test: Oxygen saturation in mouse model of LPS-inflamed lungs (Rodent Pulse Oximeter)
Type: in vivo, Balb/C female mice
Description: Evaluation of the effect of ZEP3Na administration via inhalation on oxygen saturation in a mouse model of inflamed lungs by the lipopolysaccharides (LPS) was performed. Oxygen saturation testing was performed at several time points on mice that have been anesthetized by isoflurane. A sensor was attached to the hind foot of the mice and the percentage of oxygen in the blood was measured using the Rodent Pulse Oximeter instrument (Kent Scientific).
Following LPS intratracheal instillation, a marked reduction in blood oxygen saturation levels was detected. ZEP3Na was then administered by inhalation at two doses 6 h and 14 h after LPS administration and the effect of ZEP3Na on blood oxygen saturation was monitored 0, 2, 6, 12, 24 and 48 hours following ZEP3Na administration. Saturation data was analyzed by ANOVA followed by Tukey-Kramer test. Significance level was defined as ∝=0.05.

pGlu-Asn-Trp-Lys(Octanoyl)-OH ([pGlu]NWK(Octanoyl)-OH; SMILES CCCCCCCC(=O)NCCCC[C@H](NC(=O)[C@H](Cc1c[nH]c2ccccc12)NC(=O)[C@H](CC(N)=O)NC(=O)[C@@H]1CCC(=O)N1)C(=O)O) [ZEP3]
time after administration over which increase in oxygen saturation was exerted (acute inflamed lung model): at least 48 hours | time following treatment at which increase in oxygen saturation is statistically significant (administration by inhalation, LPS model): 12 h
